# Measurements as given in patent US8247211B2, “Glycopeptide antibiotics” (American Cyanamid Company, priority 2001, dated 2012).
# Experiments:
# Enterococcus sp. = experiment: In vitro antibacterial evaluation: minimum inhibitory concentration (MIC), broth dilution method; type: cell-based; details: 18 hours at 35° C.
# How it was run: (§1)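 NCCLS M7-A2 broth dilution with Mueller-Hinton II, testing 64-0.06 μg/mL antibiotic against 5×10^5 CFU/mL inocula. Test strains include recent methicillin-, penicillin- or vancomycin-resistant clinical isolates. MIC is the lowest concentration preventing growth.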
# Escherichia coli = experiment: as above; type: cell-based; details: Escherichia coli (GC 4560); 18 hours at 35° C.
# How it was run: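 Susceptibility determined by NCCLS-recommended broth dilution (M7-A2), Muller-Hinton II […]. Concentration span 64-0.06 μg/mL, inoculum 5×10^5 CFU/mL. Isolates include strains resistant to methicillin, penicillin and/or vancomycin.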
# Staphylococcus sp. = experiment: as above; type: cell-based; details: 18 hours at 35° C.
# How it was run: as §1
# Streptococcus sp. = experiment: as above; type: cell-based; details: 18 hours at 35° C.
# How it was run: as §1
# [1] = tested on: Staphylococcus aureus-SMITH (GC 4543); experiment: Acute lethal infection in mice (ED50); type: in vivo; details: female CD-1 mice, intraperitoneal challenge, intravenous dose 30 min. after infection, 7 day survival ratios
# How it was run: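 ED50 derived from pooled 7-day survival in three separate experiments, five mice per dose level. Single intravenous dose 30 min after intraperitoneal infection of female CD-1 mice with enough bacteria to kill untreated animals in 24-48 h.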
# [2] = broth dilution, inoculum 5×10^5 CFU/mL
smiles,measurement,setting,value
"CC(c1ccccc1)C1NC(=O)CNC(=O)C(CO)NC(=O)C(C(O)C2CNC(=N)N2C2OC(CO)C(O)C(O)C2O)NC(=O)C(C(O)C2CNC(=N)N2)NC(=O)C(Cc2ccc(OC3OC(CO)C(OC4OC(COCc5ccc(OCc6ccccc6)cc5)C(O)C(O)C4O)C(O)C3O)cc2)NC1=O (stereo not drawn) [Example 231, Cyclo[glycyl-β-methylphenylalanyl-O-[4-O-[6-O-[4-(phenylmethoxy)benzyl]hexopyranosyl]-hexopyranosyl)tyrosyl-3-(2-iminoimidazolidin-4-yl)seryl-3-(3-hexopyranosyl-2-iminoimidazolidin-4-yl)serylseryl]]",MIC Enterococcus avium (GC 4558),Enterococcus sp.; Enterococcus avium (GC 4558),2 to 4 µg/mL
same,MIC Enterococcus faecalis (ATCC 29212),Enterococcus sp.; Enterococcus faecalis (ATCC 29212),4 µg/mL
same,MIC Enterococcus faecalis (GC 2242),Enterococcus sp.; Enterococcus faecalis (GC 2242),4 µg/mL
same,MIC Enterococcus faecalis (GC 2691),Enterococcus sp.; Enterococcus faecalis (GC 2691),2 to 4 µg/mL
same,MIC Enterococcus faecalis (GC 3059),Enterococcus sp.; Enterococcus faecalis (GC 3059),2 to 4 µg/mL
same,MIC Enterococcus faecalis (GC 4552),Enterococcus sp.; Enterococcus faecalis (GC 4552),4 µg/mL
same,MIC Enterococcus faecalis (GC 4553),Enterococcus sp.; Enterococcus faecalis (GC 4553),4 µg/mL
same,MIC Enterococcus faecalis (GC 4554),Enterococcus sp.; Enterococcus faecalis (GC 4554),4 µg/mL
same,MIC Enterococcus faecalis (GC 6189),Enterococcus sp.; Enterococcus faecalis (GC 6189),2 to 4 µg/mL
same,MIC Enterococcus faecium (GC 2243),Enterococcus sp.; Enterococcus faecium (GC 2243),4 µg/mL
same,MIC Enterococcus faecium (GC 4556),Enterococcus sp.; Enterococcus faecium (GC 4556),4 µg/mL
same,MIC Enterococcus faecium (GC 4557),Enterococcus sp.; Enterococcus faecium (GC 4557),1 to 2 µg/mL
same,MIC Enterococcus avium (GC 4558),Enterococcus sp.; [2],2 to 4 µg/mL
same,MIC Enterococcus faecalis (ATCC 29212),Enterococcus sp.; [2],4 µg/mL
same,MIC Enterococcus faecalis (GC 2242),Enterococcus sp.; [2],4 µg/mL
same,MIC Enterococcus faecalis (GC 2691),Enterococcus sp.; [2],2 to 4 µg/mL
same,MIC Enterococcus faecalis (GC 3059),Enterococcus sp.; [2],2 to 4 µg/mL
same,MIC Enterococcus faecalis (GC 4552),Enterococcus sp.; [2],4 µg/mL
same,MIC Enterococcus faecalis (GC 4553),Enterococcus sp.; [2],4 µg/mL
same,MIC Enterococcus faecalis (GC 4554),Enterococcus sp.; [2],4 µg/mL
same,MIC Enterococcus faecalis (GC 6189),Enterococcus sp.; [2],2 to 4 µg/mL
same,MIC Enterococcus faecium (GC 2243),Enterococcus sp.; [2],4 µg/mL
same,MIC Enterococcus faecium (GC 4556),Enterococcus sp.; [2],4 µg/mL
same,MIC Enterococcus faecium (GC 4557),Enterococcus sp.; [2],1 to 2 µg/mL
same,MIC Escherichia coli (GC 4560),Escherichia coli,0.5 to 2 µg/mL
same,MIC Coagulase Negative Staphylococcus (GC 4547),Staphylococcus sp.; Coagulase Negative Staphylococcus (GC 4547),1 to 2 µg/mL
same,MIC Coagulase Negative Staphylococcus (GC 4548),Staphylococcus sp.; Coagulase Negative Staphylococcus (GC 4548),0.5 to 1 µg/mL
same,MIC Coagulase Negative Staphylococcus (GC 4551),Staphylococcus sp.; Coagulase Negative Staphylococcus (GC 4551),1 µg/mL
same,MIC Coagulase Negative Staphylococcus (GC 6257),Staphylococcus sp.; Coagulase Negative Staphylococcus (GC 6257),0.5 to 1 µg/mL
same,MIC Staphylococcus aureus (ATCC 29213),Staphylococcus sp.; Staphylococcus aureus (ATCC 29213),1 to 4 µg/mL
same,MIC Staphylococcus aureus (GC 1131),Staphylococcus sp.; Staphylococcus aureus (GC 1131),2 to 4 µg/mL
same,MIC Staphylococcus aureus (GC 3051),Staphylococcus sp.; Staphylococcus aureus (GC 3051),1 to 2 µg/mL
same,MIC Staphylococcus aureus (GC 3053),Staphylococcus sp.; Staphylococcus aureus (GC 3053),1 to 2 µg/mL
same,MIC Staphylococcus aureus (GC 4541),Staphylococcus sp.; Staphylococcus aureus (GC 4541),1 to 4 µg/mL
same,MIC Staphylococcus aureus (GC 4542),Staphylococcus sp.; Staphylococcus aureus (GC 4542),2 to 4 µg/mL
same,MIC Staphylococcus aureus (GC 4544),Staphylococcus sp.; Staphylococcus aureus (GC 4544),2 to 4 µg/mL
same,MIC Staphylococcus aureus (GC 4545),Staphylococcus sp.; Staphylococcus aureus (GC 4545),1 to 4 µg/mL
same,MIC Staphylococcus aureus-SMITH (GC 4543),Staphylococcus sp.; Staphylococcus aureus-SMITH (GC 4543),2 µg/mL
same,MIC Staphylococcus haemolyticus (GC 4546),Staphylococcus sp.; Staphylococcus haemolyticus (GC 4546),1 to 4 µg/mL
same,MIC Streptococcus agalactiae (GC 4564),Streptococcus sp.; Streptococcus agalactiae (GC 4564),<0.06 µg/mL
same,MIC Streptococcus pneumoniae (ATCC 6301),Streptococcus sp.; Streptococcus pneumoniae (ATCC 6301),<0.06 µg/mL
same,MIC Streptococcus pneumoniae (GC 1894),Streptococcus sp.; Streptococcus pneumoniae (GC 1894),<0.06 µg/mL
same,MIC Streptococcus pneumoniae (GC 4565),Streptococcus sp.; Streptococcus pneumoniae (GC 4565),<0.06 µg/mL
same,MIC Streptococcus pyogenes (GC 4563),Streptococcus sp.; Streptococcus pyogenes (GC 4563),<0.06 µg/mL
same,MIC Streptococcus agalactiae (GC 4564),Streptococcus sp.; [2],<0.06 µg/mL
same,MIC Streptococcus pneumoniae (ATCC 6301),Streptococcus sp.; [2],<0.06 µg/mL
same,MIC Streptococcus pneumoniae (GC 1894),Streptococcus sp.; [2],<0.06 µg/mL
same,MIC Streptococcus pneumoniae (GC 4565),Streptococcus sp.; [2],<0.06 µg/mL
same,MIC Streptococcus pyogenes (GC 4563),Streptococcus sp.; [2],<0.06 µg/mL
same,"median effective dose (ED50), Staphylococcus aureus-SMITH (GC 4543)",[1],0.25 mg/kg
